Source: publication PMC9785311, “Effect of Structural Differences in Naringenin, Prenylated Naringenin, and Their Derivatives on the Anti-Influenza Virus Activity and Cellular Uptake of Their Flavanones” (Pharmaceuticals, 2022)
Read-outs that look alike come from different tables or passages of the source.

Tests used:
[1] = system: influenza virus A/PR/8/34; experiment: microbe, parasite or virus in culture; type: cell-based, Type A influenza virus H1N1 (PR/8/34); conditions: for SI (Selectivity index = CC50/IC50): CC50 50% cytotoxicity concentration in MDCK cells (MTT), IC50 against A/PR/8/34
[2] = system: MDCK cells; experiment: Cellular uptake by fluorescence microscopy; conditions: 30 μM compound, phenol red-free medium, 60-360 min, about 20 cells per time point
[3] = system: MDCK cells; experiment: Efflux of prenylated naringenin after intracellular saturation; type: cell-based, canine; conditions: for Release of intracellular compound from the cell: after 180 min exposure, compound-free DMEM containing 1% FBS, 0-240 min; for Fluorescence intensity change after 120 min culture in compound-free medium compared to 0 min: cells saturated by 180 min exposure, then DMEM containing 1% FBS for 120 min
Description: Based on our results, we examined the kinetics of intracellular prenylated naringenin in Dulbecco’s Modified Eagle Medium (DMEM) containing 1% fetal bovine serum (FBS). […] The intracellular kinetics changed greatly depending on the position of the prenyl group. After 120 min of culturing in the medium, the fluorescence intensity of 8-PN and 6-PN increased approximately 1.6-fold and 9.4-fold, respectively, compared to that at 0 min (Figure 6).
Figure 5 Efflux of prenylated naringenin after intracellular saturation. The amount of the compound in the cells was saturated by exposure for 180 min, and the cells were cultured in Dulbecco’s Modified Eagle Medium (DMEM) for 0, 120, and 240 min. After removing the medium, cells were fixed with 4% paraformaldehyde and stained with DAPI (blue). These images show 8-PN (A) and 6-PN (B) fluorescence. Scale bars = 50 μm.
Figure 6 Efflux and fluorescence intensity of intracellular prenylated naringenins. Fluorescence intensity of 8-PN and 6-PN from Figure 5. The standard deviation bars are indicated on each bar graph. *** p < 0.001.

[4] = system: MDCK cells; experiment: Intracellular distribution by fluorescence microscopy of fixed cells; type: cell-based, canine; conditions: 30 μM, 180 min exposure, fixed with 4% paraformaldehyde, DAPI
Description: Cells cultured on glass plates were exposed to a concentration of 30 μM for 180 min. The exposed cells were washed with PBS and the compounds were removed from the medium. The cells were then fixed with 4% paraformaldehyde and observed under a fluorescence microscope. […] The amount of naringenin taken up by the cells may be small. Moreover, fluorescence was detected for prenylated naringenin.
Figure 4 Analysis of prenylated naringenin and naringenin fluorescence distribution by imaging. After removing the medium, cells were treated with 30 μM compound for 180 min and fixed with 4% paraformaldehyde. Fixed cells were stained with DAPI (blue). These images show fluorescence of 8-prenylnaringenin (8-PN; A), 6-prenylnaringenin (6-PN; B), and naringenin (C). Scale bars = 50 μm.
Cells were cultured on glass plates and incubated in a medium supplemented with the compound for 180 min. They were then washed and fixed with 4% paraformaldehyde for 30 min. After washing with PBS, DAPI staining was performed. Intracellular distribution was photographed and observed using an inverted fluorescence phase-contrast microscope (BZ-X800, Keyence, Osaka, Japan).

[5] = system: influenza virus A/PR/8/34; experiment: Time-of-addition assay; type: cell-based, Type A influenza virus H1N1 (PR/8/34); conditions: 30 μM, MOI 0.01
Excerpt: We performed a time-of-addition assay to verify the effect of the prenyl group position on viral growth inhibition. Figure 7A,B show virus viability when exposed to each prenylated naringenin for each time duration. […] In previous studies, inhibitory effects differed depending on the flavonoid backbone. The anti-influenza virus effect depends on the position of the prenyl group, which is a novel observation of the present study.
Figure 7 Effect of prenylated naringenin on virus viability. (A) 8-PN and 6-PN (30 μM). (B) Schedule of the experiment. Cells were infected with influenza virus A/PR/8/34 at a multiplicity of infection of 0.01 in 24-well plates. After infection at each time point, the cells were harvested and viruses were assayed using a focus-forming reduction assay. […] Data are representative of three independent experiments. Standard deviation bars indicate each bar graph (*** p < 0.001, ** p < 0.01).
We conducted a time-of-addition assay as previously described. DMEM containing prenylated naringenin (30 μM) was added at −1–0 h (adsorption), 0–8 h (replication), 0–4 h, 0–2 h, 2–4 h, 4–8 h, 4–6 h, and 6–8 h. Furuta et al. estimated the intracellular cycle of infected cells before extracellular budding to be 8 h, and growth stages were assumed to occur at 2 h intervals.

[6] = A/PR/8/34 strain in MDCK cells, mean ± SD of three independent experiments, ND = not detected

| Molecule | IC50 [1, 6] | SI (Selectivity index = CC50/IC50) [1] | IC50 ([1]; PR/8, MDCK) [µM] | melting point [°C] | other results |
| --- | --- | --- | --- | --- | --- |
| C=CCc1c(O)cc2c(c1O)C(=O)C[C@@H](c1ccc(O)cc1)O2 (racemic) [2a, 6-allylnaringenin] | weaker activities than 6-PN | 0.8 | 103 ± 3.8 |  |  |
| CC1(C)OC1Cc1c(O)cc(O)c2c1OC(c1ccc(O)cc1)CC2=O (stereo not drawn) [1a] |  | 2.7 | 59 ± 9 | 191.5 to 193 |  |
| C=C(C)C(Cc1c(O)cc(O)c2c1OC(c1ccc(O)cc1)CC2=O)OC(C)=O (stereo not drawn) [1b] | lost and not active |  |  | 189 to 191.5 |  |
| CC(=O)Oc1ccc(C2CC(=O)c3c(O)cc(OC(C)=O)c(CCC(C)C)c3O2)cc1 (stereo not drawn) [1c] |  | 6.3 | 42 ± 2.1 |  |  |
| CC(C)CCc1c(O)cc(O)c2c1OC(c1ccc(O)cc1)CC2=O (stereo not drawn) [1d] |  | 3.0 | 61 ± 14 |  |  |
| CC(=O)OC(Cc1c(O)cc(O)c2c1OC(c1ccc(O)cc1)CC2=O)C(C)C (stereo not drawn) [1e] | lost and not active |  |  | 155 to 156 |  |
| CC(C)CCc1c(O)cc2c(c1O)C(=O)CC(c1ccc(O)cc1)O2 (stereo not drawn) [2b] | weaker activities than 6-PN | 1.3 | 58 ± 15.2 |  |  |
| O=C1CC(c2ccc(O)cc2)Oc2cc(O)c(CC=C3CCCCC3)c(O)c21 (stereo not drawn) [2c] | not detected |  |  | 204.4 to 205.2 |  |
| O=C1CC(c2ccc(O)cc2)Oc2cc(O)c(CCC3CCCCC3)c(O)c21 (stereo not drawn) [2d] | not detected |  |  | 213.3 to 215.3 |  |
| CC(C)=CCc1c(O)cc2c(c1O)C(=O)C[C@@H](c1ccc(O)cc1)O2 [6-PN, 6-prenylnaringenin] |  | 5.5 | 38 ± 4.7 |  | Fluorescence intensity (intracellular uptake) [2]: high fluorescence intensity; Release of intracellular compound from the cell [3]: released relatively quickly; Fluorescence intensity change after 120 min culture in compound-free medium compared to 0 min [3]: ~9.4 fold; Intracellular distribution of fluorescence [4]: localize to the cytoplasmic periphery; Inhibition of virus growth, 2 h exposure (4–6 h after infection) [5]: high inhibition tendency; Inhibition of virus growth, late stage (6–8 h) [5]: block the late stage of viral growth |
| CC(C)=CCc1c(O)cc(O)c2c1O[C@H](c1ccc(O)cc1)CC2=O [8-PN, 8-prenylnaringenin] |  | 4.9 | 24 ± 0.6 |  | Fluorescence intensity (intracellular uptake) [2]: high fluorescence intensity; Release of intracellular compound from the cell [3]: released from the cell slowly; Fluorescence intensity change after 120 min culture in compound-free medium compared to 0 min [3]: approximately 1.6 fold; Intracellular distribution of fluorescence [4]: distributed mostly in the cytoplasm and nucleus; Inhibition of virus growth, exposure during virus adsorption period (−1–0 h) [5]: high inhibitory effect; Inhibition of virus growth, late stage (6–8 h) [5]: block the late stage of viral growth |
| CC(=O)Oc1ccc(C2CC(=O)c3c(O)cc(OC(C)=O)cc3O2)cc1 (stereo not drawn) [Naringenin-4′,7′-diacetate] |  |  |  |  | IC50 ([1]; A/PR/8/34 strain in MDCK cells, mean ± SD of three independent experiments, ND = not detected, listed as naringenin-4′,7-diacetate): markedly lost its anti-influenza activity; IC50 ([1]; A/PR/8/34 strain in MDCK cells, mean ± SD of three independent experiments, ND = not detected, listed as naringenin-4′,7′-diacetate): lost its activity |
| CCC(CC)O[C@@H]1C=C(C(=O)O)C[C@H](N)[C@H]1NC(C)=O [oseltamivir acid, reference compound] |  |  | 0.002 |  |  |
| (±)-Naringenin [reference compound] |  | 4.9 |  |  | IC50 ([1]; A/PR/8/34 strain in MDCK cells, mean ± SD of three independent experiments, ND = not detected, read-out: IC50): 290 ± 16.2 µM |
